Assay results as given in BindingDB's records for patent US20230322769 (Jiangsu Chia Tai Fenghai Pharmaceutical, 2023).
Several values for one entry are separate records, joined by “and”; a condition that tells them apart may be missing. Identical values can stand only once. One block for each molecule: values may come before it.

What was measured:
[1] = target: Proto-oncogene tyrosine-protein kinase receptor Ret (Homo sapiens, UniProt P07949); experiment: Inhibition of RET Family Kinases Activity
[2] = target: Coiled-coil domain-containing protein 6/Proto-oncogene tyrosine-protein kinase receptor Ret (Homo sapiens, UniProt P07949); experiment: Inhibition of RET Family Kinases Activity
[3] = target: Proto-oncogene tyrosine-protein kinase receptor Ret [M918T] (Homo sapiens, UniProt P07949, M918T); experiment: Inhibition of RET Family Kinases Activity
[4] = target: Proto-oncogene tyrosine-protein kinase receptor Ret [V804M] (Human, UniProt P07949, V804M); experiment: Inhibition of RET Family Kinases Activity
[5] = target: Vascular endothelial growth factor receptor 2 (Homo sapiens, UniProt P35968); experiment: Inhibition of RET Family Kinases Activity
[6] = target: Potassium voltage-gated channel subfamily H member 2 (Homo sapiens, UniProt Q12809); experiment: Inhibition of hERG Potassium Channel
Description: Whole-cell patch-clamp recording was carried out. […] This procedure was repeated every 20 seconds. The hERG tail current was a pure hERG current.

Sequence of Proto-oncogene tyrosine-protein kinase receptor Ret [M918T] (P07949 29-1114 M918T limits assumed): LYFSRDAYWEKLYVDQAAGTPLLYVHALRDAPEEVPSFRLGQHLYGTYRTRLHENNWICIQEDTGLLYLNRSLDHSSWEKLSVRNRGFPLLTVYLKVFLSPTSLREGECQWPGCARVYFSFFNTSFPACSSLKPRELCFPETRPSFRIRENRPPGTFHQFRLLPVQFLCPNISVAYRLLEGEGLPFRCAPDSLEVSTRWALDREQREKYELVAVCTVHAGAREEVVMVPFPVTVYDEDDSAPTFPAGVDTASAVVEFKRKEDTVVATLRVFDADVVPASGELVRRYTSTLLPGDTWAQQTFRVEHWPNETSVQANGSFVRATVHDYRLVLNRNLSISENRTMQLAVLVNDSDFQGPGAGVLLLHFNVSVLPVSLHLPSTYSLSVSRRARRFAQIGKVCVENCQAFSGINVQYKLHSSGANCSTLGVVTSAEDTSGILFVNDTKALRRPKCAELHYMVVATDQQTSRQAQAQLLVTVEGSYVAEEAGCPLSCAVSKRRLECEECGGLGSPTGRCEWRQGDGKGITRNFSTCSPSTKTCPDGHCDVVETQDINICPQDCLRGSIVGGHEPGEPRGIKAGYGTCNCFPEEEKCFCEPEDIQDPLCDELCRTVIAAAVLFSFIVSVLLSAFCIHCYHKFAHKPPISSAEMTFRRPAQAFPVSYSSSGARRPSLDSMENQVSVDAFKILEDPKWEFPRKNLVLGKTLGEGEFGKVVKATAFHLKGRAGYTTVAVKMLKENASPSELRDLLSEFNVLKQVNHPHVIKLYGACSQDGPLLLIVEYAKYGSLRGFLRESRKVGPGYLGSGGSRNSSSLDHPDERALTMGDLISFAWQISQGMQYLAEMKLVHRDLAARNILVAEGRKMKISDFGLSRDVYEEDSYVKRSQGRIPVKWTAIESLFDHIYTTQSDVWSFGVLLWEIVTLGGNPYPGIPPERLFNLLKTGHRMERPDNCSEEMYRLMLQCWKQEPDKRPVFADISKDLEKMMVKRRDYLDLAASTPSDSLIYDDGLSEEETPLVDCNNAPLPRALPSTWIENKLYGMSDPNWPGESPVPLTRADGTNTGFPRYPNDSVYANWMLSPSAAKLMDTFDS
Sequence of Proto-oncogene tyrosine-protein kinase receptor Ret [V804M] (P07949 29-1114 V804M limits assumed): as the sequence (P07949 29-1114 M918T limits assumed) above, with V776M, T890M counted along it
Sequence of Vascular endothelial growth factor receptor 2 (P35968 whole entry): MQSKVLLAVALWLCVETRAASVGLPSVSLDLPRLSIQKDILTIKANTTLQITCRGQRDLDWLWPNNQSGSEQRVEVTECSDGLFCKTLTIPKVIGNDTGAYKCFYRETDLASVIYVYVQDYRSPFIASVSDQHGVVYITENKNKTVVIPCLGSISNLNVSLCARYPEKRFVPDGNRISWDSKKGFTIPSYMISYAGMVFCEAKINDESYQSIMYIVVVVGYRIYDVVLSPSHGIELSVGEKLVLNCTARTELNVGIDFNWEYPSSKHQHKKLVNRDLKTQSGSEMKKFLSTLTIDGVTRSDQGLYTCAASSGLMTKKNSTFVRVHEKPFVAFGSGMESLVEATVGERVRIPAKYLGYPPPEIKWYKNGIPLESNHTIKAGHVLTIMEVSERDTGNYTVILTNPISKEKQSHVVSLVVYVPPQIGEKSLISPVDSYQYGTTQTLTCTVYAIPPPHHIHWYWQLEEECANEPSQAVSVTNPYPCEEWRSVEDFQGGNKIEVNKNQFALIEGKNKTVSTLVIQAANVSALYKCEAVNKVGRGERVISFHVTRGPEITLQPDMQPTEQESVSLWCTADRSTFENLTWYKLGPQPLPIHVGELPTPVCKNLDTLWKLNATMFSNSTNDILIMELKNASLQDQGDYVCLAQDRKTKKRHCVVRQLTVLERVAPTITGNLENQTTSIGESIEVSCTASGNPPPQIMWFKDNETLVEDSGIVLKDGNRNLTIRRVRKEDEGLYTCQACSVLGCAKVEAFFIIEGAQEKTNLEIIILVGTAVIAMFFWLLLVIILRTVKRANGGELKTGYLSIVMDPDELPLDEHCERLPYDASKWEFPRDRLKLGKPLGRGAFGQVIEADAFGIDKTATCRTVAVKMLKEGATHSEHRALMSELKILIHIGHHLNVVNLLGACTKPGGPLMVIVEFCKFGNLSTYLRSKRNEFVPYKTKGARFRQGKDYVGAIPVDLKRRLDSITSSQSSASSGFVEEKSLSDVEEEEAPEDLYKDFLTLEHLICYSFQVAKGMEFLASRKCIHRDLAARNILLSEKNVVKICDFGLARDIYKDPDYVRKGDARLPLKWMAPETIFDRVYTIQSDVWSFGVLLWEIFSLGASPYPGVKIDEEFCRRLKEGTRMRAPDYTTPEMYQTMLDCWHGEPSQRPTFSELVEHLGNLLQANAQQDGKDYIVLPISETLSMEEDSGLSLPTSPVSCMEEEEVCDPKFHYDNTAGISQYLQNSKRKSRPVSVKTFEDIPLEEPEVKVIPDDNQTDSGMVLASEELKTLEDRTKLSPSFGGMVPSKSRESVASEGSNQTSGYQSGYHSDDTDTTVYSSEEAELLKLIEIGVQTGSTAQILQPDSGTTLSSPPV
Sequence of Coiled-coil domain-containing protein 6/Proto-oncogene tyrosine-protein kinase receptor Ret (P07949 whole entry, the tested form may be a part): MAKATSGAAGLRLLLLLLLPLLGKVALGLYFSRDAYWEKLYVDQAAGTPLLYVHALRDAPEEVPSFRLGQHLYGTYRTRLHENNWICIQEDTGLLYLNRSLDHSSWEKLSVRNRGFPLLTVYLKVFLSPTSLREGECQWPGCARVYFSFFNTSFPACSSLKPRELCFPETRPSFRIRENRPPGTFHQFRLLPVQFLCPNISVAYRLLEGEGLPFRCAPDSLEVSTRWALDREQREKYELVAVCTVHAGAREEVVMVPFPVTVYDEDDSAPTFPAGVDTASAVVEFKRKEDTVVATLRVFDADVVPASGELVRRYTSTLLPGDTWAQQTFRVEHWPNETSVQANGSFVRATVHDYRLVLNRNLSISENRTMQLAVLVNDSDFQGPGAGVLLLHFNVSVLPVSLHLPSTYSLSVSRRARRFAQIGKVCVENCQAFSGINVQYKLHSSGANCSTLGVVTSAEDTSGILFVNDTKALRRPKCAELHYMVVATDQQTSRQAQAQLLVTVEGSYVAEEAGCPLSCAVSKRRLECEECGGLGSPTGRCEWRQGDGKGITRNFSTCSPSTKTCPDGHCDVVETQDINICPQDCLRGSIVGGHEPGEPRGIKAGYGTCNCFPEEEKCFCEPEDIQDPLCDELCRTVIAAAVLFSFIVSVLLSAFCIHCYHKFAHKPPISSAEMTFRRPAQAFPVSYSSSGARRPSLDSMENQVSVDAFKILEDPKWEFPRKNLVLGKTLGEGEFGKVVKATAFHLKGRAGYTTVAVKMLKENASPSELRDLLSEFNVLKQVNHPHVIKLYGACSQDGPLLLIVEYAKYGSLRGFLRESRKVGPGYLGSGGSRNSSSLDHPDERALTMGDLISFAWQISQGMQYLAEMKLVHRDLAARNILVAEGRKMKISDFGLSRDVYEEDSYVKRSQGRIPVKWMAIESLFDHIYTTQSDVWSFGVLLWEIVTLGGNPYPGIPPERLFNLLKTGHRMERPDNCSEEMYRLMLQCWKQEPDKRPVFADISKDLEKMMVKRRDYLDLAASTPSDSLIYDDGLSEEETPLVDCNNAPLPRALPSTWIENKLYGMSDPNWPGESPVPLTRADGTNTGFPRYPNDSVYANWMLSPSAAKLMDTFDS
Sequence of Coiled-coil domain-containing protein 6/Proto-oncogene tyrosine-protein kinase receptor Ret (Q16204 whole entry, further chain, the tested form may be a part): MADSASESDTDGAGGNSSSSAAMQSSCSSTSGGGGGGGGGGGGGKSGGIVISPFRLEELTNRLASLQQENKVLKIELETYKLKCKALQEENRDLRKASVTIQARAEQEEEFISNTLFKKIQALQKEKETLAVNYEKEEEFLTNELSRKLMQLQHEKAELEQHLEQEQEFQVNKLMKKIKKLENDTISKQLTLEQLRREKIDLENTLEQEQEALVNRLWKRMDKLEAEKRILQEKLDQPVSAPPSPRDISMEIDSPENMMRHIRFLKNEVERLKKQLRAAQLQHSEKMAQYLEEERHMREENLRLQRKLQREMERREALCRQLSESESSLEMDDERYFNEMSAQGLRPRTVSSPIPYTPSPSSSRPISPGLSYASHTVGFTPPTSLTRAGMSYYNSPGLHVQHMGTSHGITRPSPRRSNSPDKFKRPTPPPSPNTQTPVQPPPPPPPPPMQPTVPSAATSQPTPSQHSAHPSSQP
Sequence of Proto-oncogene tyrosine-protein kinase receptor Ret (P07949 whole entry, the tested form may be a part): as the sequence (P07949 whole entry, the tested form may be a part) above

Structure (SMILES): COc1ccc(CN2C3CC2CN(c2ccc(-c4cc(N5CCOC[C@H]5C)cn5ncc(C#N)c45)cn2)C3)cn1 [US20230322769, Compound 85]
IC50 [1]: 19 nM

IC50 [2]: 17.2 nM
IC50 [1]: 27.9 nM
IC50 [3]: 48.4 nM
IC50 [4]: 128 nM
Structure (SMILES): COc1ccc(CN(C)CCN(C)c2ccc(-c3cc(-c4cnn(C)c4)cn4ncc(C#N)c34)cn2)cn1 [US20230322769, Compound 17-a]

Structure (SMILES): COc1ccc(CN2C3CC2CN(c2ccc(-c4cc(N(CC5CC5)CC(C)(C)O)cn5ncc(C#N)c45)cn2)C3)cn1 [US20230322769, Compound 81]
IC50 [1]: 193 nM
IC50 [5]: 612 nM

Structure (SMILES): COc1ccc(CN2C3CC2CN(c2ccc(-c4cc(N5CCOC[C@@H]5C)cn5ncc(C#N)c45)cn2)C3)cn1 [US20230322769, Compound 84]
IC50 [1]: 24.8 nM

Structure (SMILES): COc1ccc(C(=O)N2CCN(c3ccc(-c4cc(-c5cc6n(n5)CCC6)cn5ncc(C#N)c45)cn3)CC2)cn1 [US20230322769, Compound 68]
IC50 [2]: 6.01 nM
IC50 [1]: 12.6 nM
IC50 [3]: 10.7 nM
IC50 [4]: 26.3 nM
IC50 [5]: 186 nM

Structure (SMILES): COc1ccc(CN2C3CC2CN(c2ccc(-c4cc(NCC(C)(C)O)cn5ncc(C#N)c45)cn2)C3)cn1 [US20230322769, Compound 78]
IC50 [2]: 4.6 nM
IC50 [1]: 1.28 nM
IC50 [3]: 5.47 nM
IC50 [4]: 8.23 nM
IC50 [5]: 51.9 nM

Structure (SMILES): COc1ccc(CN2C3CC2CN(c2ccc(-c4cc(N5CCNCC5)cn5ncc(C#N)c45)cn2)C3)cn1 [US20230322769, Compound 96]
IC50 [1]: 5.24 nM
IC50 [5]: 240 nM

IC50 [1]: 98.3 nM
IC50 [3]: 326 nM
IC50 [4]: 860 nM
Structure (SMILES): COc1ccc(CN2CCN(c3nc(-c4cc(-c5cnn(C)c5)cn5ncc(C#N)c45)cs3)CC2)cn1 [US20230322769, Compound 39]

Structure (SMILES): COc1ccc(CN2C3CC2CN(c2ccc(-c4cc(-c5cc6n(n5)CCC6)cn5ncc(C#N)c45)cn2)C3)cn1 [US20230322769, Compound 66]
IC50 [1]: 2.24 nM
IC50 [3]: 4.06 nM
IC50 [4]: 4.33 nM and 7.69 nM

Structure (SMILES): COc1ccc(CN2C3CC2CN(c2ccc(-c4cc(N5CCP(C)(=O)CC5)cn5ncc(C#N)c45)cn2)C3)cn1 [US20230322769, Compound 20]
IC50 [2]: 2.14 nM
IC50 [1]: 4.1 nM
IC50 [3]: 1.45 nM
IC50 [4]: 3.23 nM
IC50 [5]: 340 nM

Structure (SMILES): COc1ccc(CN2CCCN(c3ccc(-c4cc(-c5cc6n(n5)CCC6)cn5ncc(C#N)c45)cn3)CC2)cn1 [US20230322769, Compound 70]
IC50 [2]: 30.7 nM
IC50 [1]: 26.6 nM
IC50 [3]: 42.8 nM
IC50 [4]: 111 nM
IC50 [5]: 387 nM
IC50 [6]: 4740 nM

IC50 [1]: 4.56 nM
IC50 [5]: 71.3 nM
Structure (SMILES): COc1ccc(CN2C3CC2CN(c2ccc(-c4cc(N5CC(C)(O)C5)cn5ncc(C#N)c45)cn2)C3)cn1 [US20230322769, Compound 86]

Structure (SMILES): COc1ccc(CN2C3CC2CN(c2ccc(-c4cc(N5CCCC(O)C5)cn5ncc(C#N)c45)cn2)C3)cn1 (stereo unspecified) [US20230322769, Compound 82]
IC50 [1]: 10.7 nM
IC50 [5]: 280 nM

Structure (SMILES): COc1ccc(CN2C3CC2CN(c2ccc(-c4cc(N5CCN(C)CC5)cn5ncc(C#N)c45)cn2)C3)cn1 [US20230322769, Compound 94]
IC50 [2]: 3 nM
IC50 [3]: 2.78 nM
IC50 [5]: 154 nM

Structure (SMILES): COc1ccc(CN2C3CC2CN(c2ccc(-c4cc(N5CC(C)(C)OC5C5CC5)cn5ncc(C#N)c45)cn2)C3)cn1 (stereo unspecified) [US20230322769, Compound 80]
IC50 [1]: 21.6 nM
IC50 [5]: 566 nM

Structure (SMILES): COc1ccc(CN2C3CC2CN(c2ccc(-c4cc(N5CCOC(C)C5)cn5ncc(C#N)c45)cn2)C3)cn1 (stereo unspecified) [US20230322769, Compound 83]
IC50 [1]: 15.8 nM

Structure (SMILES): COc1ccc(CN2C3CC2CN(c2ccc(-c4cc(N5CC6(COC6)C5)cn5ncc(C#N)c45)cn2)C3)cn1 [US20230322769, Compound 88]
IC50 [1]: 7.22 nM
IC50 [5]: 96.9 nM

Structure (SMILES): COc1ccc(CN2C3CC2CN(c2ccc(-c4cc(N5CC6CC(C5)N6)cn5ncc(C#N)c45)cn2)C3)cn1 [US20230322769, Compound 16]
IC50 [2]: 3.65 nM
IC50 [1]: 8.4 nM
IC50 [3]: 2.42 nM
IC50 [4]: 4.78 nM
IC50 [5]: 406 nM

Structure (SMILES): COc1ccc(CN2C3CC2CN(c2ccc(-c4cc(N5CC6CC(C5)N6C)cn5ncc(C#N)c45)cn2)C3)cn1 [US20230322769, Compound 17]
IC50 [1]: 5.5 nM
IC50 [3]: 1.7 nM
IC50 [4]: 3.82 nM
IC50 [5]: 551 nM

Structure (SMILES): COc1ccc(CN2C3CC2CN(c2ccc(-c4cc(N5CCOCC5)cn5ncc(C#N)c45)cn2)C3)cn1 [US20230322769, Compound 65]
IC50 [2]: 0.52 nM
IC50 [1]: 1.09 nM
IC50 [3]: 0.92 nM
IC50 [4]: 3.37 nM
IC50 [5]: 92.8 nM

Structure (SMILES): COc1ccc(CN2C3CC2CN(c2ccc(-c4cc(N5CCN(C)C(=O)C5)cn5ncc(C#N)c45)cn2)C3)cn1 [US20230322769, Compound 89]
IC50 [2]: 3.04 nM
IC50 [1]: 0.674 nM
IC50 [3]: 1.47 nM
IC50 [4]: 4.72 nM
IC50 [5]: 157 nM

IC50 [1]: 30.9 nM
IC50 [3]: 53.1 nM
IC50 [4]: 242 nM
Structure (SMILES): COc1ccc(CN2CCC(n3cc(-c4cc(-c5cnn(C)c5)cn5ncc(C#N)c45)cn3)CC2)cn1 [US20230322769, Compound 43]
